Measured values: patent US20230082929A1, “METHODS OF GENERATING AND USING SENESCENT-INDUCED CELLS FOR TREATMENT OF CANCER AND COMPOSITIONS RELATING THERETO” (The Wistar Institute of Anatomy and Biology, priority 2020, published 2023)

How the values were obtained:
TOP1cc [1] = target: T1, TOP1cc (Mus musculus, UniProt Q04750); experiment: Slot blot analysis of TOP1cc levels in CCF of senescent ID8-Defb29/Vegf-a cells; assay type: cell-based; details: HMGB2 knockdown Cisplatin-induced senescent ID8-Defb29 Vegf-a cells
T1 construct: endogenous in cells; host or cells: UPK10 mouse ovarian cancer cells, sorted senescent and non-senescent fractions
T1 sequence (Q04750 1-767): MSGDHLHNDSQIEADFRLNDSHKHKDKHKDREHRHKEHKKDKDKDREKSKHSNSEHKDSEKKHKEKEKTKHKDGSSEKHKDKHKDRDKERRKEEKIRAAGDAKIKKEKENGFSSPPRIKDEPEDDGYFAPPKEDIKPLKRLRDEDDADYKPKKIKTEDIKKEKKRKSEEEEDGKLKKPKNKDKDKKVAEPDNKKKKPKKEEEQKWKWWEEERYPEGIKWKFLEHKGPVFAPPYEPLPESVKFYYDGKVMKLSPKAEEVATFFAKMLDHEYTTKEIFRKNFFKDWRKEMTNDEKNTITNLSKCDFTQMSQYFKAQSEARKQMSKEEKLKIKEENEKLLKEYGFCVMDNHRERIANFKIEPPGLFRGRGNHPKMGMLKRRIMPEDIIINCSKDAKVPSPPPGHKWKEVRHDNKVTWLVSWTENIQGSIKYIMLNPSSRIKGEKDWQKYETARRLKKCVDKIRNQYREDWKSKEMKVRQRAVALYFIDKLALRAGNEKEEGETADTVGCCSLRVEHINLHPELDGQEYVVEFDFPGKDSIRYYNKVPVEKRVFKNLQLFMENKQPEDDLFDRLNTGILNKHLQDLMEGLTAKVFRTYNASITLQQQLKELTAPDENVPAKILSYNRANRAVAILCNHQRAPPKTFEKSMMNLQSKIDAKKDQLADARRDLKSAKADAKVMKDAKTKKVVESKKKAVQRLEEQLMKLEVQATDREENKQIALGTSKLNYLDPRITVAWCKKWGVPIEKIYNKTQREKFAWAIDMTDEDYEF
Experimental: A CCF purification protocol was developed by modifying previous protocols (Shimizu et al., 1996; Ly et al., 2017). Briefly, 500 million senescent cells were collected, resuspended, and incubated in DMEM containing 10 μg/mL cytochalasin B for 30 minutes at 37° C. After wash once with ice-cold PBS, the cell pellet was gently dounce homogenized in ice-cold pre-chilled lysis buffer (10 mM Tris-HCl, 2 mM magnesium acetate, 3 mM CaCl2), 0.32 M sucrose, 0.1 mM EDTA, 1 mM DTT, 0.1% NP-40, 0.15 mM spermine, 0.75 mM spermidine, 10 μg/ml cytochalasin B, pH 8.5, 4° C.) with ten slow strokes of a loose-fitting pestle. Release of nuclei was confirmed by DAPI-staining and microscopy. The homogenate was fixed with 1% formaldehyde for 10 minutes, and mixed well with an equal volume of 1.6M sucrose buffer (10 mM Tris-HCl, 5 mM magnesium acetate, 0.1 mM EDTA, 1 mM DTT, 0.3% BSA, 0.15 mM spermine, 0.75 mM spermidine, pH 8.0, 4° C.). A 10 mL portion of homogenate was layered on the top of sucrose buffer gradient (20 mL and 15 mL containing 1.8M and 1.6M of sucrose, respectively) in a 50 mL tissue culture tube. The tubes were centrifuged at 1200×g for 20 minutes at 4° C. After centrifugation, the upper 3 mL of the gradient was discarded, and the next 15 mL containing CCFs was collected. […] DNA concentration was measured using Nanodrop and 5 μg DNA was used for slot blot analysis.

[2] = tested on: ID8-Defb29/Vegf-a ovarian cancer; experiment: In vivo orthotopic syngeneic ID8-Defb29/Vegf-a ovarian cancer mouse model
Experimental: For orthotopic syngeneic model, luciferase expressing ID8-Defb29/Vegf-a with inducible shHMGB2 cells were pretreated with 2 μM Cisplatin for 48 hours to induce CCFs. 5×10^6 cells were i.p. injected into the peritoneal cavity of C57BL/6 mouse (female, 6-8 weeks old, CRL/NCI) (Zhu et al., 2016). Animals were randomly assigned to different treatment groups (10 mice/group). The mice in control groups were fed with control rodent diet (Fisher Scientific. Cat. No: 14-726-309). For the HMGB2 knockdown groups, mice were fed with Bio-Serv™ Doxycycline Grain-Based Rodent Diet (Fisher Scientific. Cat. No: 14-727-450) to induce HMGB2 knockdown. Tumor progression was monitored twice a week using a Xenogen IVIS Spectrum in vivo bioluminescence imaging system. Images were analyzed using Live Imaging 4.0 software. Tumor-bearing mice were treated by i.p. injection with isotype control IgG or anti-PD-L1 antibody (Bio X Cell, Cat. No: B7-H1, clone 10 F.9G2, 10 mg kg^-1) every 3 days with or without simultaneous TOP1 inhibitor camptothecin treatment (Selleck Cat. No: S1288; 8 mg kg^-1). For survival analysis, the Wistar Institute IACUC guideline was followed in determining the time for ending the survival experiments (tumor burden exceeds 10% of body weight).

cGAS = cGAS localization into CCF by immunofluorescence; assay type: cell-based, human; details: HMGB2 knockout cells
Experimental: Cells were fixed with 4% paraformaldehyde (PFA) for 15 mins at room temperature followed by permeabilization with 0.2% Triton X-100 in PBS for 5 min. For DNase I digestion, after fixation and permeabilization, cells were treated with 500 units/mL RNase-Free DNase I (Qiagen, Cat. No: 79254) for one hour at 37° C. After blocking with 1% BSA in PBS, cells were incubated with primary antibody overnight at 4° C. and Alexa-Fluor conjugated secondary antibody (Life Technologies). Fluorescent images were captured using Leica TCS SP5 II scanning confocal microscope.

TOP1cc [3] = target: T2, TOP1cc (Homo sapiens, UniProt P11387); experiment: TOP1cc induction in CPT-treated IMR90 cells (chromatin fragment extraction, slot blot); assay type: cell-based; set-up: endogenous in cells; host or cells: IMR90 human fibroblasts (senescent or proliferating, with or without shHMGB2); details: IMR90 cells treated with two doses of CPT (5 μM or 50 μM, 30 minutes)
T2 sequence (P11387 1-765): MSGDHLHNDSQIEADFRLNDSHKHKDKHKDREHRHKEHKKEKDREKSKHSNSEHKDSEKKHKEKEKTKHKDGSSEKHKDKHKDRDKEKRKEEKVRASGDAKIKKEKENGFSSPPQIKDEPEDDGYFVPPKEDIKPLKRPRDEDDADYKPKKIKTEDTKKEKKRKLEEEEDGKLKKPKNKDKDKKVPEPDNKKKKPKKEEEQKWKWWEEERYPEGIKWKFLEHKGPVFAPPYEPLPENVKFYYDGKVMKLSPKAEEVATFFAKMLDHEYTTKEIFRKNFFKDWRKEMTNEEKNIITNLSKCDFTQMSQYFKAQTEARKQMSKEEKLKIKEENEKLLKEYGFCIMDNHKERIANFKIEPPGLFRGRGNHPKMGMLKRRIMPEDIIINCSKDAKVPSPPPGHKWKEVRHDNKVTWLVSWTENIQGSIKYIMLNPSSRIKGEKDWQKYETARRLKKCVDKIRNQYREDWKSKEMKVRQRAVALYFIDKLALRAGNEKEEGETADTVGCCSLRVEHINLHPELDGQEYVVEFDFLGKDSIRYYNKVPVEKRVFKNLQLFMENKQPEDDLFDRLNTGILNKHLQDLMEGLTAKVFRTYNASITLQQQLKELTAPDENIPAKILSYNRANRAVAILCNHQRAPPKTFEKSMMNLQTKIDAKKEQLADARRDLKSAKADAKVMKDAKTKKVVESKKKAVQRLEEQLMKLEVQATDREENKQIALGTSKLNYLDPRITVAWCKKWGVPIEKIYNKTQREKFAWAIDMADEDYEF
Experimental: For chromatin fragments extraction, proliferating IMR90 cells were treated with 5 μM or 50 μM Camptothecin for 30 minutes to induce low or high levels of TOP1cc, respectively. Cells then were incubated with hypotonic buffer (10 mM Tris, pH 7.4, 30 mM NaCl, 3 mM MgCl2, 0.1% NP40), supplemented with protease inhibitor cocktail, on ice for 10 mins (Dou et al., 2017). The cells were then centrifuged at 300×g for 3 mins at 4° C. The supernatant was carefully removed, and the resulting pellets were incubated with benzonase buffer (50 mM Tris pH 7.5, 300 mM NaCl, 0.5% NP40, 2.5 mM MgCl2) with protease inhibitor cocktail, supplemented with 10 U of benzonase (Sigma Cat. No: E1014), on ice, for 30 min. The product was centrifuged again at 300×g for 3 mins at 4° C., and benzonase was inactivated by addition of 15 mM EDTA. The resulting supernatant contains chromatin fragments and soluble nuclear proteins. For the negative controls, buffer without benzonase was used and the resulting supernatant only contains soluble nuclear proteins without chromatin fragments. The product was then diluted 5 times with PBS. Slot blot were performed to confirm the TOP1cc level.
Human Topoisomerase 1 ICE Assay Kit (TopoGEN. Cat. No:TG1020-1) was used to isolate protein-DNA samples which contain TOP1-DNA covalent complex (TOP Ice) for slot blot analysis. […] Quantification was performed using NIH Image J software.

CC[C@@]1(O)C(=O)OCc2c1cc1n(c2=O)Cc2cc3ccccc3nc2-1 [CPT, Camptothecin]
TOP1cc levels in CCF (TOP1cc [1]): Rescue of the decrease in TOP1cc levels | anti-PD-L1 treatment response (tumor growth by luciferase bioluminescence) ([2]; HMGB2 knockdown tumors, CPT 8 mg kg-1 i.p. with anti-PD-L1 antibody 10 mg kg-1 every 3 days): significantly restored the anti-PD-L1 response | body weight of the treated mice ([2]; anti-PD-L1 antibody-treated group, during treatment period): did not affect the body weight | survival of mice ([2]; mice bearing HMGB2 knockdown tumors, CPT with anti-PD-L1 antibody): rescued the survival | localization of cGAS and TOP1cc into CCF (cGAS): rescue of the localization of cGAS and TOP1cc into CCF | TOP1cc induction (TOP1cc [3]): induced TOP1cc in a dose-dependent manner
